Laboratory results taken from publication PMC5011342, “A high throughput drug screening assay to identify compounds that promote oligodendrocyte differentiation using acutely dissociated and purified oligodendrocyte precursor cells” (BMC Research Notes, 2016).
Like-named read-outs stand apart in the source and are kept apart here.

Columns and labels:
expanded OPCs = experiment: cells; details: for 0.1 µM (% DMSO) / 1 µM (% DMSO) / 10 µM (% DMSO): alamarBlue viability of expanded OPCs, relative to DMSO control; for 0.1 µM (% DMSO): compound at 0.1 µM; for 1 µM (% DMSO): compound at 1 µM; for 10 µM (% DMSO): compound at 10 µM; for viability at 0.1 µM / viability at 1 µM / viability at 10 µM: Rattus norvegicus, 72 h
Description: Having established a consistent assay for measuring OL differentiation in vitro, the next step was to utilize this assay to assess the ability of a wide array of compounds to promote OL differentiation. Prior to library screening, we first established the maximum non-toxic dose of each compound in the library. […] Therefore, we added each compound in the NIH clinical collection (NCC) library to OPCs at 10, 1, and 0.1 µM concentrations. Three days later, we assessed viability of the treated cells by measuring AlamarBlue fluorescence, a measure of cell viability (see “Methods” section). […] Appropriately, we established three sets of screening concentrations for library compounds: non-toxic compounds were tested at 10 and 2 µM, slightly toxic compounds (only toxic at 10 µM) were tested at 2 and 0.4 µM, and very toxic compounds were tested at 0.4 and 0.08 µM.
OPCs were expanded in vitro by seeding into PDL-coated tissue culture flasks at 1000–2000 cells/cm^2 in differentiation media supplemented with 10 ng/ml PDGF-AA. Proliferating OPCs were fed every 2–3 days and supplemented with 2–3× concentration of PDGF as needed to prevent OPC differentiation. After 6–7 days of proliferation, OPCs were harvested by trypsinization, plated into PDL-coated 96-well Falcon plates and centrifuged at 200×g to facilitate cell attachment, survival, and even distribution of cells. Expanded OPCs were seeded in differentiation media at 10,000 cells/well and incubated for 2 h at 37 °C, 10 % CO2 prior to addition of compounds. The NCC library was diluted and added to cells at 10, 1, and 0.1 µM; each concentration was tested in quadruplicate. As a positive control for the induction of toxicity, 5 ng/ml tunicamycin was added to 8 wells in each plate. Three days later, a 1:10 dilution of alamarBlue® (AB) was added to each well and cells were incubated 4 h at 37 °C, 10 % CO2. AB fluorescence was measured using a PerkinElmer Victor II fluorescence microplate reader (PerkinElmer, Waltham, MA) with 560 nm excitation/590 nm emission filters. For library screening, the highest concentration of each compound was adjusted to a minimally toxic concentration based on this toxicity data. Compounds were additionally tested at a second concentration that was 1/5th of the top concentration. The final concentration of DMSO in each well was 0.1 %.

[1] = system: acutely dissociated and purified rat OPCs; experiment: Acute OL differentiation assay (MBP expression/cell, immunofluorescent image quantification); format: cell-based; details: Rattus norvegicus
Description: In order to identify compounds with the potential to promote OL differentiation in vivo and thereby enhance remyelination, we first wanted to establish an in vitro assay system that would closely mimic conditions in vivo. To do this, we started by using OPCs acutely isolated from postnatal day 6–7 (P6–7) rat brains by O4 immunopanning. […] OPCs were plated directly onto a biological substrate (PDL/laminin) in 96-well view plates at moderate density to allow for sufficient room to expand processes during differentiation. We plated cells in serum-free medium lacking OPC mitogens (no PDGF or FGF) to allow a basal level of OL differentiation to commence, and as a positive control added thyroid hormone (T3, 40 ng/ml) to accelerate differentiation (Fig. 1, flow scheme).
Fig. 1 Flow scheme of the acute OL differentiation assay. a Purified oligodendrocyte precursor cells (OPCs) were cultured from P7 rat cortex and plated into PDL/laminin pre-coated 96-well plates. b One hour later test compounds were added. c OPC cultures with compound were maintained in culture for an additional 4 days. d On the 5th day with compound, cells were fixed and immunostained with anti-MBP antibodies and DAPI. e Images were acquired with automated fluorescence microscopy and scored phenotypically for OL differentiation (see “Methods” section)
To quantify the extent of OL differentiation occurring in treatment conditions, we measured the overall amount of MBP expression/cell (see “Methods” section). Figure 2a depicts the mask created over MBP staining under which the MBP expression was quantified. […]
All animal work was carried out in strict accordance with the recommendations in the Guide for the Care and Use of Laboratory Animals of the National Institutes of Health. The protocol was approved by the Institutional Use and Care and Use Committee at the Molecular Medicine Research Institute (Sunnyvale, CA). Animals used for OPC isolation in these studies were euthanized by decapitation. OPCs from brains of P6-P7 Sprague–Dawley rat pups (Charles River, Wilmington, MA, USA) were enriched by immunopanning as previously described (Dugas et al. 2006). Briefly, single cell suspensions were obtained from papain-digested neonatal brains and depleted of mature glial cells by successive panning with RAN-2- and GalC-coated plates, followed by enrichment for OPCs using O4-coated plates. OPCs were plated in differentiation media (DMEM, 100 U/ml Penicillin/100 µg/ml streptomycin, 2 mM L-glutamine, 1 mM Na pyruvate, 5 µg/ml insulin, 5 µg/ml N-acetyl-L-cysteine, 1× trace elements B,10 ng/ml d-Biotin, 100 µg/ml BSA, 100 µg/ml apo-transferrin, 16 µg/ml putrescine, 60 ng/ml progesterone, 40 ng/ml sodium selenite 5 ng/ml forskolin, 10 ng/ml CNTF, 1 ng/ml NT-3).
Acutely enriched OPCs were plated in differentiation media at 5000 cells/well into PDL/laminin coated 96-well view plates and centrifuged at 200×g to facilitate cell attachment, survival, and even distribution of OPCs. OPCs were pre-incubated for 1–2 h at 37 °C in 10 % CO2, followed by the addition of test compounds in quadruplicate. Controls were added in eight replicate wells, negative control = 0.1 % DMSO; positive control = 40 ng/ml T3. The day of OPC plating was considered DIV0. On DIV4, cells were fixed, immunostained for myelin basic protein (MBP) expression, imaged and quantified as described below.

[2] = test compound at 2 uM, MBP expression relative to quetiapine, NCC library screen, sheet "All OLga data", read-out: 2 uM (% Quet)
[3] = test compound at 10 uM, MBP expression relative to quetiapine, NCC library screen, sheet "All OLga data", read-out: 10 uM (% Quet)
[4] = read-out: 0.1 µM (% DMSO), alamarBlue viability of expanded OPCs, compound at 0.1 µM, sheet All Tox data
[5] = read-out: 1 µM (% DMSO), alamarBlue viability of expanded OPCs, compound at 1 µM, sheet All Tox data
[6] = read-out: 10 µM (% DMSO), alamarBlue viability of expanded OPCs, compound at 10 µM, sheet All Tox data
[7] = 2 uM test compound, relative to quetiapine, sheet "All OLga data", read-out: OL differentiation, 2 uM (% Quet)
[8] = 10 uM test compound, relative to quetiapine, sheet "All OLga data", read-out: OL differentiation, 10 uM (% Quet)
[9] = test compound at 2 uM, NCC library screen, sheet "All OLga data", relative to quetiapine, read-out: 2 uM (% Quet)
[10] = test compound at 10 uM, NCC library screen, sheet "All OLga data", relative to quetiapine, read-out: 10 uM (% Quet)

Compound | 0.1 µM (% DMSO) (expanded OPCs) | 1 µM (% DMSO) (expanded OPCs) | 10 µM (% DMSO) (expanded OPCs) | activation at 2 µM [1, 2] [%] | activation at 10 µM [1, 3] [%] | viability at 0.1 µM (expanded OPCs; [4]) [%] | viability at 1 µM (expanded OPCs; [5]) [%] | viability at 10 µM (expanded OPCs; [6]) [%] | activation at 2 µM [1, 7] [%] | activation at 10 µM [1, 8] [%] | also measured
CC(=O)OCC[N+](C)(C)C [Acetylcholine] | 87.6 | 92.6 | 87.0 | -4.4 | -7.7 |  |  |  |  |  | 
COc1cc(C)c(/C=C/C(C)=C/C=C/C(C)=C/C(=O)O)c(C)c1C [Acitretin] | 101.2 | 141.3 | 148.0 | 68.7 | 51.4 |  |  |  |  |  | 
CC(=O)Nc1ccc(CC(=O)O)cc1 [Actarit] |  |  |  |  |  | 96.4 | 104 | 102 | 4.4 | -11.3 | 
Nc1nc2c(ncn2COCCO)c(=O)[nH]1 [Acyclovir] | 98.2 | 90.8 | 91.7 | 21.2 | 4.3 |  |  |  |  |  | 
Nc1ncnc2c1ncn2[C@@H]1O[C@H](CO)[C@@H](O)[C@H]1O [Adenosine] |  |  |  |  |  |  |  |  |  |  | viability at 0.1 µM (expanded OPCs; read-out: 0.1 µM (% DMSO), alamarBlue viability, NCC library compound at 0.1 µM, sheet "All Tox data"): 88.5%; viability at 1 µM (expanded OPCs; read-out: 1 µM (% DMSO), alamarBlue viability, NCC library compound at 1 µM, sheet "All Tox data"): 81.3%; viability at 10 µM (expanded OPCs; read-out: 10 µM (% DMSO), alamarBlue viability, NCC library compound at 10 µM, sheet "All Tox data"): 80.5%; activation at 2 µM [1, 9]: 3.3%; activation at 10 µM [1, 10]: -9.9%
CCCSc1ccc2nc(NC(=O)OC)[nH]c2c1 [Albendazole] | 55.7 | 57.4 | 58.6 |  |  |  |  |  |  |  | activation at 0.4 µM ([1]; read-out: 0.4 uM (% Quet)): -27.1%; activation at 2 µM ([1]; read-out: 2 uM (% Quet)): -112%
COc1cc2nc(N(C)CCCNC(=O)C3CCCO3)nc(N)c2cc1OC (stereo not drawn) [Alfuzosin] |  |  |  |  |  | 90.1 | 89.6 | 86.6 | -11.1 | -32.5 | 
Oc1ncnc2[nH]ncc12 [Allopurinol] | 83.9 | 89.7 | 89.6 |  |  |  |  |  |  |  | activation at 2 µM [1, 9]: -5.6%; activation at 10 µM [1, 10]: -5.5%
Cc1[nH]cnc1CN1CCc2c(c3ccccc3n2C)C1=O [Alosetron] |  |  |  |  |  | 106 | 91.2 | 96.3 | -24 | -21.2 | 
